The record followed here is patent US12357603B2, “Acyl sulfonamides for treating cancer” (Bayer Aktiengesellschaft, priority 2019, dated 2025).

Where two headings read alike, the source gives them in different places.

For assay [1], the target named is Recombinant human His-tagged Kat6a protein (amino acids 194-810) (Homo sapiens (Human), UniProt Q92794). The experiment in a line: Kat6a activity assay (TR-FRET, acetylation of biotinylated Histone-H4-derived peptide). The class given is biochemical. Particulars: 60 mins at 22° C., read-out: KAT6A-DPF/HAT domain IC50 [mol/l] (arithmetic mean). The source says: Kat6a inhibitory activities of the compounds described in the present invention were quantified using a Fluorescence Resonance Energy Transfer (TR-FRET) assay which measures acetylation of a synthetic, biotinylated Histone-H4-derived peptide by the enzyme.
Recombinant human His-tagged Kat6a protein (amino acids 194-810), was purified in-house from Baculovirus-infected insect cells (Sf9). Histone H4 peptide (amino acids 1-24, […]-VLRD-K(Btn)-amide), which was used as substrate, was synthesized by Biosyntan GmbH, Berlin, Germany. Acetyl Coenzyme A was purchased from Sigma-Aldrich (#A-2056).
Kat6a was incubated for 60 mins at 22° C. in the presence of different concentrations of test substances (0 μM, and within the range 0.01-20 μM) in assay buffer [25 mM Tris/HCl pH 8, 1 mM EGTA, 2.5 mM Glutathion, 0.02% Chicken Albumin, 0.05% Pluronic F127, 25 mM NaCl, 220 nM H4 peptide and 600 nM Acetyl Coenzym A].
The reaction was stopped by addition of Detection Solution (25 mM HEPES pH 7.5, 0.1% BSA, 22 nM SAXL665 (Cisbio #610SAXLE), 100 μM Anacardic Acid (Enzo #ALX-270-381), 1 nM Anti-Histone H4 (ACETYL K8) Antibody (ABCAM #AB15823) and 0.5 nM Anti-Rabbit IgG Eu (Perkin Elmer #AD0083).
The fluorescence emission at 620 nm and 665 nm after excitation at 330-350 nm was measured in a TR-FRET measuring instrument, for instance a Rubystar or a Pherastar (both from BMG Lab Technologies, Offenburg, Germany) or a Viewlux (Perkin-Elmer). The ratio of the emission at 665 nm and at […] was used as indicator of the amount of acetylated peptide.
The resulting data (ratio) were normalized, taking 0% inhibition as the mean value of control measurements where all reagents were included. In this case 50 nl DMSO were used instead of compounds. […] IC50 values were determined by regression analysis based on a 4 parameter equation (minimum, maximum, ICM, Hill; Y=Max+(Min−Max)/(1+(X/ICso) Hill) using the Screener Software (Genedata).
Table 5 depicts the IC50 values of selected examples in biochemical KAT6A and KAT6B3 assays.
On the technique in general: In TR-FRET formats the signal depends on donor and acceptor labels being close together.

Assay [2] has as its system ESR1 transcription (luciferase signal in MVLN cells). The experiment in a line: Repression of ESR1 transcription, luciferase reporter in MVLN cells. In kind it is cell-based. Particulars: inhibition of luciferase signal in MVLN cells, arithmetic mean. The source says:
Repression of ESR1 Transcription Upon Treatment of Cells with Compounds
KAT6A controls transcription of the ESR1 gene in breast cancer cells. Compound treatment that interferes with this mechanism was quantified using MVLN cells. These cells constitutively express the ER and are stably transfected with the luciferase (LUC) reporter gene and the corresponding hormone responsive element derived from the 5′-flanking region of the Xenopus Vitellogenin A2 gene (Pons et al., 1990, Demirpense et al., 1993, Joyeux et al., 1993). The repressive effect on ERα transcription activity of a test chemical is directly related to the luciferase measured in the lysate of treated MVLN cells.
Each sample was prepared as duplicate and rim wells were excluded. For luciferase signal determination 100 μl of a 1:1 mixture of Steadylite plus (Perkin Elmer; 6016759) and assay medium was added after 24 h for 15 minutes and measured in Victor X3 (Perkin Elmer). To exclude any effects caused by cell loss during the treatment, cell density was determined using Alamar Blue (Invitrogen; DAL1100). Prior to the luciferase measurement 10 μl Alamar Blue were added to each well and the plates were incubated for 2 h in the incubator. Then fluorescence was measured with Victor X3 (Perkin Elmer) at 530 nm/590 nm.
(In general: A reporter such as luciferase makes a cellular process visible.)

In the next assay the test system is ZR-75-1 cells. The experiment in a line: Proliferation assay ZR-75-1 (Alamar Blue, 144 h). The class given is cell-based. The following applies: arithmetic mean, read-out: ZR75-1 proliferation assay, EC50 [M] (arithmetic mean). The text has this: Proliferation Assays for Compound Characterization
For compound characterization cell survival assays were routinely run in two cell lines. ZR-75-1 is a breast carcinoma cell line containing a focal KAT6A amplification and high KAT6A protein expression. Proliferation of this cell line is inhibited upon treatment with KAT6A inhibitors. As a negative control cell line MDA-MB-436 were used. These cells carry a […] deletion of the KAT6A gene, have a low KAT6A protein expression and are not growth inhibited upon treatment with KAT6A inhibitors.
For measurements cell lines were plated at the below indicated concentration per […] in 96-well plates in a humidified incubator at 37° C. and 5% CO2.
ZR-75-1 (ATCC, CRL-1500; breast carcinoma); 3000 cells per well; culture medium: RPMI 1640 (Biochrom #FG 1215) medium containing 2.5% FBS (Biochrom #S0615).
24 hours later, cells were treated with compounds (stock solution, 10 mM in DMSO) using the HP D300 Digital Dispenser in a concentration range of 2.0×10E-5 M to 2.0×10E-9 M in a single-dot curve with 9 dilutions and a DMSO concentration of 0.2%. Each sample was prepared as triplicate and rim wells were excluded. Plates were incubated at 37° C. and 5% CO2 for 144 h. Cell viability was measured by adding 10 μL of Alamar Blue Reagent (Invitrogen #DAL 1100) and plates were incubated for 2 h at 37° C. and 5% CO2. Fluorescence was measured at 590 nm wavelength with a Tecan Spark or Victor X3 MTP-Reader (PerkinElmer).
(In general: The colour change of resazurin is a common sign of viable cells or microbes.)

Chain of Recombinant human His-tagged Kat6a protein (amino acids 194-810) (Q92794 194-810): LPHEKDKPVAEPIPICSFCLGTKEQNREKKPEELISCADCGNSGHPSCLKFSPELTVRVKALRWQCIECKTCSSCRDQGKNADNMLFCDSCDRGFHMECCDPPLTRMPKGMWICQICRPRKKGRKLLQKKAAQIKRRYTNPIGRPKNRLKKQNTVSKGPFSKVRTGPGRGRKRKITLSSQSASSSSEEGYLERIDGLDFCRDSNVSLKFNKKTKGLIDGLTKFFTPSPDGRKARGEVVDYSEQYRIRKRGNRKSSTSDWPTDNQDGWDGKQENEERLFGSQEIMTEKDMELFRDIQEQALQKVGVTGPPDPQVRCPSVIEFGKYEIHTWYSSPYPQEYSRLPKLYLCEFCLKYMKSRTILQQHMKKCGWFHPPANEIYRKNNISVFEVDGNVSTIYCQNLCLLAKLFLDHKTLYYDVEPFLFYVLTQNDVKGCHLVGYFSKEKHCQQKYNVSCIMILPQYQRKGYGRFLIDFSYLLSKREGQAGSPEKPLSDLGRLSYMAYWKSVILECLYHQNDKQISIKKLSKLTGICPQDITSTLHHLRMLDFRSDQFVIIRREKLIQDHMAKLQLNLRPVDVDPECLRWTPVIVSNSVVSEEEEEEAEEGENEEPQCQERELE

With `CCOC(=O)N1CCC(S(=O)(=O)NC(=O)c2cc3ccc(N(C)C)cc3o2)CC1` [Example 60, Ethyl-4-{[6-(dimethylamino)-1-benzofuran-2-carbonyl]sulfamoyl}piperidine-1-carboxylate], the IC50 in assay [1] came out at 3200 nM.

`Cc1cccc(C2CCCC2)c1S(=O)(=O)NC(=O)c1cc2ccc(N(C)C)cc2o1` [Example 157]: the IC50 in assay [2] (Homo sapiens, MVLN) is 6450 nM; in assay [1], 3180 nM. In addition, the EC50 in the assay with ZR-75-1 cells (Homo sapiens, ZR-75-1, 144 h) came to 9.45e-06 M. For `CN(C)c1ccc2cc(C(=O)NS(=O)(=O)c3c(OCc4ccccc4)cccc3OC3CCC3)oc2c1` [Example 69, N-[2-(Benzyloxy)-6-(cycolbutyloxy)benzene-1-sulfonyl]-6-(dimethylamino)-1-benzofuran-2-carboxamide] the same measures were 52.1 nM, 4.5 nM and 3.84e-07 M.

As for `CC(C)Nc1cccc(F)c1S(=O)(=O)NC(=O)c1cc2ccc(N(C)C)cc2o1` [Example 155], the IC50 in assay [2] (Homo sapiens, MVLN) worked out at 1930 nM; in assay [1] it was 932 nM. In the assay on ZR-75-1 cells (Homo sapiens, ZR-75-1, 144 h), the EC50 was 7.62e-06 M. `CN(C)c1ccc2cc(C(=O)NS(=O)(=O)c3c(F)cccc3C3CCC3)oc2c1` [Example 158]: the IC50 in assay [2] (Homo sapiens, MVLN) came to 1490 nM; in assay [1], 684 nM. In addition, the EC50 in the assay with ZR-75-1 cells (Homo sapiens, ZR-75-1, 144 h) was 7.93e-06 M.

For `CN(C)c1ccc2cc(C(=O)NS(=O)(=O)c3cc(CO)ccc3OC(F)(F)F)oc2c1` [Example 161], the IC50 was more than 20000 nM in assay [2] (Homo sapiens, MVLN) and 6770 nM in assay [1]. Also, in the assay on ZR-75-1 cells (Homo sapiens, ZR-75-1, 144 h), the EC50 is more than 2e-05 M. Regarding `CCOc1ccncc1S(=O)(=O)NC(=O)c1cc2ccc(N(C)C)cc2o1` [Example 58, 6-(Dimethylamino)-N-(4-ethoxypyridine-3-sulfonyl)-1-benzofuran-2-carboxamide], the IC50 in assay [1] stood at 534 nM. The same measure, in the same setting: next, `CN(C)c1ccc2cc(C(=O)NS(=O)(=O)c3ccccc3Br)oc2c1` [Example 18, N-(2-Bromobenzene-1-sulfonyl)-6-(dimethylamino)-1-benzofuran-2-carboxamide]: 129 nM. On to `COCCOc1ccc(Cl)c(S(=O)(=O)NC(=O)c2cc3ccc(N(C)C)cc3o2)c1` [Example 164], for which the IC50 was more than 20000 nM in assay [2] (Homo sapiens, MVLN) and 4450 nM in assay [1]. Further, the EC50 in the assay with ZR-75-1 cells (Homo sapiens, ZR-75-1, 144 h) was more than 2e-05 M.

Turning to `Cc1ccc(S(=O)(=O)NC(=O)c2cc3ccc(N(C)C)cc3o2)c(OC(F)F)c1` [Example 159], the IC50 was 519 nM in assay [2] (Homo sapiens, MVLN) and 233 nM in assay [1]. Moreover, the EC50 in the assay with ZR-75-1 cells (Homo sapiens, ZR-75-1, 144 h) was 6.97e-07 M. The corresponding values for `CCOc1ccc(C(C)C)cc1S(=O)(=O)NC(=O)c1cc2c(F)cc(N(C)C)cc2o1` [Example 107, 6-(Dimethylamino)-N-[2-ethoxy-5-(propan-2-yl)benzene-1-sulfonyl]-4-fluoro-1-benzofuran-2-carboxamide] are 8.63 nM, 2.29 nM and 4.49e-08 M.

On to `CCOc1ccc(Br)cc1S(=O)(=O)NC(=O)c1cc2ccc(N(C)C)cc2o1` [Example 57, N-(5-Bromo-2-ethoxybenzene-1-sulfonyl)-6-(dimethylamino)-1-benzofuran-2-carboxamide], for which the IC50 in assay [1] was 38.2 nM.

On to `CC(c1ccc(Cl)cc1Cl)S(=O)(=O)NC(=O)c1cc2ccc(N(C)C)cc2o1` (racemic) [Example 55, N-[1-(2,4-Dichlorophenyl)ethanesulfonyl]-6-(dimethylamino)-1-benzofuran-2-carboxamide (rac)], for which the IC50 in assay [1] was found to be 86.4 nM. On the same count and under the same terms, next, `CN(C)c1ccc2cc(C(=O)NS(=O)(=O)c3ccccc3C(F)(F)F)oc2c1` [Example 54, 6-(Dimethylamino)-N-[2-(trifluoromethyl)benzene-1-sulfonyl]-1-benzofuran-2-carboxamide]: 430 nM. Compound `Cc1ccc2cccc(S(=O)(=O)NC(=O)c3cc4cc(C#N)c(N(C)C)cc4o3)c2n1` [Example 209, 5-Cyano-6-(dimethylamino)-N-(2-methylquinoline-8-sulfonyl)-1-benzofuran-2-carboxamide] registered an IC50 in assay [2] (Homo sapiens, MVLN) of more than 20000 nM. In addition, the EC50 in the assay on ZR-75-1 cells (Homo sapiens, ZR-75-1, 144 h) was 9.4e-06 M.

Regarding `CCOc1c(F)cccc1S(=O)(=O)NC(=O)c1cc2ccc(N(C)C)cc2o1` [Example 169, 6-(Dimethylamino)-N-(2-ethoxy-3-fluoro-phenyl)sulfonyl-benzofuran-2-carboxamide], the IC50 in assay [2] (Homo sapiens, MVLN) came out at 340 nM; in assay [1], 335 nM. Regarding `CC(Oc1cccc(OC2CCC2)c1S(=O)(=O)NC(=O)c1cc2ccc(N(C)C)cc2o1)C(F)(F)F` (racemic) [Example 84, N-[2-(Cyclobutyloxy)-6-{[(2S)-1,1,1-trifluoropropan-2-yl]oxy}benzene-1-sulfonyl]-6-(dimethylamino)-1-benzofuran-2-carboxamide (rac)], the IC50 worked out at 226 nM in assay [2] (Homo sapiens, MVLN) and 40.6 nM in assay [1]. As for `CC(c1c(Cl)cccc1Cl)S(=O)(=O)NC(=O)c1cc2ccc(N(C)C)cc2o1` (racemic) [Example 56, N-[1-(2,6-Dichlorophenyl)ethanesulfonyl]-6-(dimethylamino)-1-benzofuran-2-carboxamide (rac)], in assay [1], the IC50 stood at 67.6 nM.

As for `CN(C)c1ccc2cc(C(=O)NS(=O)(=O)c3ccccc3-c3ccccc3)oc2c1Br` [Example 50, N-([Biphenyl]-2-ylsulfonyl)-7-bromo-6-(dimethylamino)-1-benzofuran-2-carboxamide], the IC50 in assay [1] was found to be 4230 nM. Regarding `CCOc1ccc(Oc2ccccc2)cc1S(=O)(=O)NC(=O)c1cc2ccc(N(C)C)cc2o1` [Example 174, 6-(Dimethylamino)-N-(2-ethoxy-5-phenoxy-phenyl)sulfonyl-benzofuran-2-carboxamide], the IC50 in assay [2] (Homo sapiens, MVLN) amounted to 123 nM; in assay [1], 11.8 nM. `CN(C)c1ccc2cc(C(=O)NS(=O)(=O)c3ccccc3-c3ccccc3)oc2c1` [Example 226] displayed an IC50 in assay [2] of 180 nM. In the assay with ZR-75-1 cells, the EC50 turned out to be 2.46e-07 M. With `CN(C)c1ccc2cc(C(=O)NS(=O)(=O)c3ccccc3O)oc2c1` [Example 59, 6-(Dimethylamino)-N-(2-hydroxybenzene-1-sulfonyl)-1-benzofuran-2-carboxamide], in assay [1], the IC50 worked out at 86.1 nM.

Regarding `CCOc1cc(F)ccc1S(=O)(=O)NC(=O)c1cc2ccc(N(C)C)cc2o1` [Example 171, 6-(Dimethylamino)-N-(2-ethoxy-4-fluoro-phenyl)sulfonyl-benzofuran-2-carboxamide], the IC50 in assay [2] (Homo sapiens, MVLN) is 102 nM; in assay [1], 94.9 nM.
